From ChEMBL document CHEMBL4765450, “The components and activities analysis of a novel anticoagulant candidate dHG-5” (Eur J Med Chem, 2020)
Active and inactive are the calls of the source. The rule behind the calls is not given here.

How the values were obtained:
Rattus norvegicus [1] = experiment: Antithrombotic activity in thromboplastin and stasis-induced Sprague-Dawley rat deep venous thrombosis model assessed as reduction in venous thrombosis by measuring activity potency of oligosaccharides multiplied by the percentage of oligosaccharides in dHG-5 at 1.52 mg/kg, sc administered 1 hr prior to thromboplastin addition for 20 secs followed by establishment of stasis for 20 mins relative …; type: functional; conditions: time 80.33 min, 1.339 h
[2] = target: T1, Coagulation factor VII (Homo sapiens) (UniProt P08709); experiment: Inhibition of factor 7a (unknown origin) at IC50 using pefachrome factor VIIa as substrate preincubated for 1 min followed by chromogenic substrate addition and measured for 2 mins; conditions: time 3.0 min
T1 sequence (whole entry): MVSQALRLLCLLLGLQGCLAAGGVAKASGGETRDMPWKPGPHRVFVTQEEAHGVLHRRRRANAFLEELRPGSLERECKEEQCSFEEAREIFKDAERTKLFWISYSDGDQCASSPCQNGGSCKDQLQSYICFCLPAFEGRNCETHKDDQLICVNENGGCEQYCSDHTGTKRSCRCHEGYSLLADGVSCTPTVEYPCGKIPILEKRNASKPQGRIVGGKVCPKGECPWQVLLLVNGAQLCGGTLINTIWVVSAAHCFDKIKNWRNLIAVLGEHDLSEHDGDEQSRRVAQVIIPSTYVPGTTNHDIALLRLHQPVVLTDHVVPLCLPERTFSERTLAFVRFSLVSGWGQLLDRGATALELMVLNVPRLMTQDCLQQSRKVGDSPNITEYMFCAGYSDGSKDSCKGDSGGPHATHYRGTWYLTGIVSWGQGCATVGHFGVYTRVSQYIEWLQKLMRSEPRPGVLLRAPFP

[3] = target: Prothrombin (Homo sapiens) (UniProt P00734); experiment: Inhibition of factor 2a (unknown origin) at IC50 preincubated for 1 min followed by chromogenic substrate addition and measured for 2 mins; conditions: time 3.0 min
[4] = target: Coagulation factor XI (Homo sapiens) (UniProt P03951); experiment: Inhibition of factor 11a (unknown origin) at IC50 using S-2366 as substrate preincubated for 1 min followed by chromogenic substrate addition and measured for 2 mins; conditions: time 3.0 min
Sequence of Coagulation factor XI (Homo sapiens) (P03951 19-387 limits assumed): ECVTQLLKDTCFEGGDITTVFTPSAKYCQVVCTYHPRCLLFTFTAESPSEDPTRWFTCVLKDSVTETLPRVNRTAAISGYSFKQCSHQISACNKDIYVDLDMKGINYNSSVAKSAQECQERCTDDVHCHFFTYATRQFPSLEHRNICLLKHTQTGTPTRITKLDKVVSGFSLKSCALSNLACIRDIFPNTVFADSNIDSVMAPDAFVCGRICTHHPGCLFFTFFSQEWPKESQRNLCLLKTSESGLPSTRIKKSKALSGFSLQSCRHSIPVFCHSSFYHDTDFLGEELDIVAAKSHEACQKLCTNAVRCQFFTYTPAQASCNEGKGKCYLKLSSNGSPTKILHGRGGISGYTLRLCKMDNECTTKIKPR
Sequence of Coagulation factor XI (Homo sapiens) (P03951 388-625 limits assumed): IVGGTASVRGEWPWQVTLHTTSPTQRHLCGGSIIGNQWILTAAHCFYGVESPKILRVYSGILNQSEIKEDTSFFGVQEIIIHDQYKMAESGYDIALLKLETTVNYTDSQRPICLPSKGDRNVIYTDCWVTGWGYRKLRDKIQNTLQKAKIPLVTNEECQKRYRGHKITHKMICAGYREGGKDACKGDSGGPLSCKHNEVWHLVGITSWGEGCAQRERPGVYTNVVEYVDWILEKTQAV

[5] = target: T2, Coagulation factor IX/VIII (Homo sapiens) (UniProt P00740+P00451); experiment: (§1) Inhibition of human citrated plasma iXase (factor 8a-factor 9a complex) preincubated for 2 mins followed by factor 10 addition and measured after 1 min by FXa chromogenic substrate SXa-11 based assay relative to dHG-5; type: protein-complex assay; conditions: time 3.0 min
Rattus norvegicus [6] = experiment: Antithrombotic activity in thromboplastin and stasis-induced Sprague-Dawley rat deep venous thrombosis model assessed as reduction in venous thrombosis at 1.52 mg/kg, sc administered 1 hr prior to thromboplastin addition for 20 secs followed by establishment of stasis for 20 mins; type: functional; conditions: 1.339 h, time 80.33 min
[7] = target: T2, Coagulation factor IX/VIII (Homo sapiens); experiment: as §1, with “complex) assessed as activity potency of oligosaccharides multiplied by the percentage of oligosaccharides in dHG-5” for “complex)”; type: protein-complex assay; conditions: time 3.0 min
Plasma [8] = experiment: (§2) Anticoagulation activity in human plasma assessed as drug level causing 20 times doubling of APTT preincubated for 2 mins followed by APTT reagent and measured after 3 mins by coagulometric method relative to dHG-5; type: functional; conditions: time 5 min
[9] = target: Coagulation factor XI (Homo sapiens) (UniProt P03951); experiment: Inhibition of factor 11a (unknown origin) at IC50 using S-2366 as substrate preincubated for 1 min followed by chromogenic substrate addition and measured for 2 mins in presence of AT-III; conditions: time 3.0 min
Coagulation factor IX [10] = target: T3, Coagulation factor IX (Homo sapiens, UniProt P00740); experiment: Inhibition of factor 9a (unknown origin) binding to immobilized biotinylated oHG-11 assessed as activity potency of oligosaccharides multiplied by the percentage of oligosaccharides in dHG-5 by biolayer interferometry relative to dHG-5
T3 sequence (P00740 47-191 limits assumed): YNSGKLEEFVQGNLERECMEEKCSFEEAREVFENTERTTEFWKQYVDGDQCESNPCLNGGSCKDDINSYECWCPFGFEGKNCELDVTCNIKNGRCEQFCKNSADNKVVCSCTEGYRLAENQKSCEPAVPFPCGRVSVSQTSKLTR
T3 sequence (P00740 227-461 limits assumed): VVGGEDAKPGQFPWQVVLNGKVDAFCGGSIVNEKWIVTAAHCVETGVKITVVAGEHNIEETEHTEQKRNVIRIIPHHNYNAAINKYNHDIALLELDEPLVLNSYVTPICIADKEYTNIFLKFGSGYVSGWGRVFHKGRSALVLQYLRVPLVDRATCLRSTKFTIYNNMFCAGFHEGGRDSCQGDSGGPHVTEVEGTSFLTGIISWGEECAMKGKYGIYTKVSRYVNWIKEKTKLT

[11] = target: Prothrombin (Homo sapiens) (UniProt P00734); experiment: Inhibition of factor 2a (unknown origin) at IC50 preincubated for 1 min followed by chromogenic substrate addition and measured for 2 mins in presence of AT-III; conditions: time 3.0 min
[12] = target: Coagulation factor X (Homo sapiens) (UniProt P00742); experiment: Inhibition of factor 10a (unknown origin) at IC50 preincubated for 1 min followed by chromogenic substrate addition and measured for 2 mins; conditions: time 3.0 min
Sequence of Coagulation factor X (Homo sapiens) (P00742 41-179 limits assumed): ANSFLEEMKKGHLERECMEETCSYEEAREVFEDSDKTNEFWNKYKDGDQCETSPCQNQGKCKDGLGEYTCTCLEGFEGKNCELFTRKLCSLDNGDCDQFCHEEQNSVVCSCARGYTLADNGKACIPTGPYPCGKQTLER
Sequence of Coagulation factor X (Homo sapiens) (P00742 235-488 limits assumed): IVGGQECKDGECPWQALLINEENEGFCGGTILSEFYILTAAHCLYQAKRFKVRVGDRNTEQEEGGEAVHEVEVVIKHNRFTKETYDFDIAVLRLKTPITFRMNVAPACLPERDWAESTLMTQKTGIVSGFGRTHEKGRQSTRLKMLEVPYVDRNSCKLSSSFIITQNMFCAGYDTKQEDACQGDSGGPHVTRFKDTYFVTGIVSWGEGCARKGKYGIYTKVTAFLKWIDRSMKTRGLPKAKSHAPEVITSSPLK

Plasma [13] = experiment: as §2, with “of APTT by measuring activity potency of oligosaccharides multiplied by the percentage of oligosaccharides in dHG-5 preincubated for” for “of APTT preincubated for”; type: functional; conditions: time 5 min
[14] = target: T4, Coagulation factor XII (Homo sapiens) (UniProt P00748); experiment: Inhibition of factor 12a (unknown origin) at IC50 using kallikrein chromogenic substrate preincubated for 1 min followed by chromogenic substrate addition and measured for 2 mins in presence of AT-III; conditions: time 3.0 min
T4 sequence (whole entry): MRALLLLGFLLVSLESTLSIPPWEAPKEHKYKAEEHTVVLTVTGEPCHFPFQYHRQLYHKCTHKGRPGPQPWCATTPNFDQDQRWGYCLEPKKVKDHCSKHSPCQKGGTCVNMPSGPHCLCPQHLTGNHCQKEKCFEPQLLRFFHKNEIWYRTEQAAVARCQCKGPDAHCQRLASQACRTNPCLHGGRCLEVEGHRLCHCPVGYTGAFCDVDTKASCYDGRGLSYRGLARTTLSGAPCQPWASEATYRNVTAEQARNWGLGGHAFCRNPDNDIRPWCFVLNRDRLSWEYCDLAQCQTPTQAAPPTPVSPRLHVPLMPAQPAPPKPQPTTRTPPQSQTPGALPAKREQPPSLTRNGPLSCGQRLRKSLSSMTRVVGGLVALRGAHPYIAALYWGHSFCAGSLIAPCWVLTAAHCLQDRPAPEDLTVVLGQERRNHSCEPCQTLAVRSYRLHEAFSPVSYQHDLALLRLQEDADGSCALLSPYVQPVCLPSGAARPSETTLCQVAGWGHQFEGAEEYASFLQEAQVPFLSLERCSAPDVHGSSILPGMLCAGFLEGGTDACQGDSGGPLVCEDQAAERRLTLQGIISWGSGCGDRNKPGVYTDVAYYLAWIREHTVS

[15] = target: Coagulation factor X (Homo sapiens) (UniProt P00742); experiment: Inhibition of factor 10a (unknown origin) at IC90 preincubated for 1 min followed by chromogenic substrate addition and measured for 2 mins in presence of AT-III relative to control; conditions: time 3.0 min
Plasma [16] = experiment: Anticoagulation activity in HCII-deficient human plasma preincubated for 2 mins followed by APTT reagent and measured after 3 mins by coagulometric method; type: functional, cell-free; conditions: time 5.0 min
[17] = target: Coagulation factor XI (Homo sapiens) (UniProt P03951); experiment: Inhibition of factor 11a (unknown origin) at IC90 using S-2366 as substrate preincubated for 1 min followed by chromogenic substrate addition and measured for 2 mins in presence of AT-III; conditions: time 3.0 min
[18] = target: T1, Coagulation factor VII (Homo sapiens); experiment: Inhibition of factor 7a (unknown origin) at IC50 using pefachrome factor VIIa as substrate preincubated for 1 min followed by chromogenic substrate addition and measured for 2 mins in presence of AT-III; conditions: time 3.0 min
[19] = target: Prothrombin (Homo sapiens) (UniProt P00734); experiment: Inhibition of factor 2a (unknown origin) at IC90 preincubated for 1 min followed by chromogenic substrate addition and measured for 2 mins in presence of AT-III; conditions: time 3.0 min
[20] = target: T4, Coagulation factor XII (Homo sapiens); experiment: Inhibition of factor 12a (unknown origin) at IC50 using kallikrein chromogenic substrate preincubated for 1 min followed by chromogenic substrate addition and measured for 2 mins; conditions: time 3.0 min
Coagulation factor IX [21] = target: T3, Coagulation factor IX; experiment: Inhibition of factor 9a (unknown origin) binding to immobilized biotinylated oHG-11 by biolayer interferometry relative to dHG-5
Plasma [22] = experiment: Induction of platelet aggregation in rat wash platelet at plasma peak concentration of 10 times anti-thrombosis ED50 measured after 10 mins by light transmission aggregometry
[23] = target: Coagulation factor X (Homo sapiens) (UniProt P00742); experiment: Inhibition of factor 10a (unknown origin) at IC50 preincubated for 1 min followed by chromogenic substrate addition and measured for 2 mins in presence of AT-III; conditions: time 3.0 min
Plasma [24] = experiment: Anticoagulation activity in AT-III-deficient human plasma preincubated for 2 mins followed by APTT reagent and measured after 3 mins by coagulometric method; type: functional, cell-free; conditions: time 5.0 min
Plasma [25] = experiment: Induction of platelet aggregation in human platelet rich plasma at plasma peak concentration of 10 times anti-thrombosis ED50 measured after 10 mins by light transmission aggregometry
Rattus norvegicus [26] = experiment: Antithrombotic activity in thromboplastin and stasis-induced Sprague-Dawley rat deep venous thrombosis model assessed as reduction in venous thrombosis at 1.52 mg/kg, sc administered 1 hr prior to thromboplastin addition for 20 secs followed by establishment of stasis for 20 mins relative to dHG-5; type: functional; conditions: time 80.33 min, 1.339 h

## CC(=O)N[C@H]1[C@H](O[C@@H]([C@H](O[C@@H]2O[C@@H](C)[C@@H](OS(=O)(=O)[O-])[C@@H](OS(=O)(=O)O)[C@@H]2O)[C@@H](O)CO)[C@H](O)C(=O)[O-])O[C@H](COS(=O)(=O)[O-])[C@H](OS(=O)(=O)[O-])[C@@H]1O[C@@H]1O[C@H](C(=O)[O-])[C@@H](O[C@@H]2O[C@H](COS(=O)(=O)[O-])[C@H](OS(=O)(=O)[O-])[C@H](O[C@@H]3O[C@H](C(=O)[O-])[C@@H](O[C@@H]4O[C@H](COS(=O)(=O)[O-])[C@H](OS(=O)(=O)[O-])[C@H](O[C@@H]5O[C@H](C(=O)[O-])[C@@H](O[C@@H]6O[C@H](COS(=O)(=O)[O-])[C@H](OS(=O)(=O)[O-])[C@H](O[C@@H]7O[C@H](C(=O)[O-])[C@@H](O[C@@H]8O[C@H](COS(=O)(=O)[O-])[C@H](OS(=O)(=O)[O-])[C@H](O[C@@H]9O[C@H](C(=O)[O-])[C@@H](O[C@@H]%10O[C@H](COS(=O)(=O)[O-])[C@H](OS(=O)(=O)[O-])[C@H](O[C@@H]%11O[C@H](C(=O)[O-])[C@@H](O[C@@H]%12O[C@H](COS(=O)(=O)[O-])[C@H](OS(=O)(=O)[O-])[C@H](O[C@@H]%13O[C@H](C(=O)[O-])[C@@H](O[C@@H]%14O[C@H](COS(=O)(=O)[O-])[C@H](OS(=O)(=O)[O-])[C@H](O[C@@H]%15O[C@H](C(=O)[O-])[C@@H](O[C@@H]%16O[C@H](COS(=O)(=O)[O-])[C@H](OS(=O)(=O)[O-])[C@H](O[C@@H]%17OC(C(=O)O)=C[C@H](O[C@@H]%18O[C@@H](C)[C@@H](OS(=O)(=O)[O-])[C@@H](OS(=O)(=O)O)[C@@H]%18O)[C@H]%17O)[C@H]%16NC(C)=O)[C@H](O[C@@H]%16O[C@@H](C)[C@@H](OS(=O)(=O)[O-])[C@@H](OS(=O)(=O)O)[C@@H]%16O)[C@H]%15O)[C@H]%14NC(C)=O)[C@H](O[C@@H]%14O[C@@H](C)[C@@H](OS(=O)(=O)[O-])[C@@H](OS(=O)(=O)O)[C@@H]%14O)[C@H]%13O)[C@H]%12NC(C)=O)[C@H](O[C@@H]%12O[C@@H](C)[C@@H](OS(=O)(=O)[O-])[C@@H](OS(=O)(=O)O)[C@@H]%12O)[C@H]%11O)[C@H]%10NC(C)=O)[C@H](O[C@@H]%10O[C@@H](C)[C@@H](OS(=O)(=O)[O-])[C@@H](OS(=O)(=O)O)[C@@H]%10O)[C@H]9O)[C@H]8NC(C)=O)[C@H](O[C@@H]8O[C@@H](C)[C@@H](OS(=O)(=O)[O-])[C@@H](OS(=O)(=O)O)[C@@H]8O)[C@H]7O)[C@H]6NC(C)=O)[C@H](O[C@@H]6O[C@@H](C)[C@@H](OS(=O)(=O)[O-])[C@@H](OS(=O)(=O)O)[C@@H]6O)[C@H]5O)[C@H]4NC(C)=O)[C@H](O[C@@H]4O[C@@H](C)[C@@H](OS(=O)(=O)[O-])[C@@H](OS(=O)(=O)O)[C@@H]4O)[C@H]3O)[C@H]2NC(C)=O)[C@H](O[C@@H]2O[C@@H](C)[C@@H](OS(=O)(=O)[O-])[C@@H](OS(=O)(=O)O)[C@@H]2O)[C@H]1O.[Na+].[Na+].[Na+].[Na+].[Na+].[Na+].[Na+].[Na+].[Na+].[Na+].[Na+].[Na+].[Na+].[Na+].[Na+].[Na+].[Na+].[Na+].[Na+].[Na+].[Na+].[Na+].[Na+].[Na+].[Na+].[Na+].[Na+].[Na+].[Na+].[Na+].[Na+].[Na+].[Na+].[Na+].[Na+].[Na+].[Na+]
Rattus norvegicus [1]
  Ratio: 7 U
[2]
  inhibition (active/not active): inactive
[3]
  inhibition: inactive
[4]
  inhibition: inactive
[5]
  Ratio: 478 U
Rattus norvegicus [6]
  inhibition in vivo at 1.52 mg/kg: 36.4%
[7]
  Ratio: 14.1 U
Plasma [8]
  Ratio: 426.19 U
[9]
  inhibition: inactive
Coagulation factor IX [10]
  Ratio: 4.46 U
[11]
  inhibition: inactive
[12]
  inhibition: inactive
Plasma [13]
  Ratio: 12.57 U
[14]
  inhibition: inactive
[15]
  inhibition: inactive
Plasma [16]
  Activity: Active
[17]
  inhibition: Active
[18]
  inhibition: inactive
[19]
  inhibition: Active
[20]
  inhibition: inactive
Coagulation factor IX [21]
  Ratio: 151 U
Plasma [22]
  Activity: Not Active
[23]
  inhibition: inactive
Plasma [24]
  Activity: Active
Plasma [25]
  Activity: Not Active
Rattus norvegicus [26]
  Ratio: 233.18 U
